According to US6894061B2, “Substituted dihydrophenanthridinesulfonamides” (Wyeth, priority 2002, dated 2005):
Read-outs that look alike come from different tables or passages of the source.

Key:
IL-6 = IL-6 test procedure (IL-6 ELISA of media) in Ad5-wt-ERα infected HAECT-1 cells; assay type: cell-based, human; settings: Homo sapiens, HAECT1, IL-1β; for IC50: read-out: Interleukin-6 IC50; for Emax: read-out: Interleukin-6 Efficacy (%)
Method: After four hours, cells were washed with EBM-BSA and incubated overnight in the same medium. Following overnight incubation, cells were washed with EBM-BSA and infected for 2 hours with 6 mL of a 1:10 dilution of Ad5-3x(NFκB).Luc virus (Adenovirus luciferase expression vector driven by 3 repeats of the MHC NFκb site 5′ to the thymidine kinase promoter) in EBM-BSA. After two hours, cells were washed and incubated at 34° C. for 1 hour. […] Control (no ER infection) cells were processed as above without Ad5-wt-hERα virus infection.
ERα infected HAECT-1 cells or control cells were thawed, diluted 42× in warm EBM-BSA, plated into 96-well plates at 0.1 mL/well and incubated for 4 hours at 34° C. Test compounds were added to the cells as 2× stocks in EBM-BSA containing 2 ng/mL IL-1β (R&D Systems) and the 96-well plates were returned to the incubator (34° C.). After 15-20 hours, 100 μL aliquots of media were removed from the cells and assayed for IL-6 content using a BioSource human IL-6 ELISA Kit. Cells were subsequently washed with 300 μL of Dulbecco's phosphate buffered saline and lysed in 50 μL of Cell Culture Lysis Reagent (Promega). Luciferase was determined on a Wallac Victor^2 Luminometer (Gaithersburg, Md.) using 10 μL of lysate and mixing with 100 μL of Promega Luciferase Assay reagent. Creatine kinase was determined from the rate of increase in A340 following addition of 100 μL of CK assay reagent (Sigma, cat. No 47-10) to the remainder of the cell lysate.
For IC50 and EC50 calculations, mean IL-6, luciferase or CK values versus log10 of the compound concentration were fitted to a four parameter logistic equation. The IC50/EC50 value, ‘Hill slope’, upper and lower limits of the curve were iteratively estimated.

ER/NF-κB = ER/NF-κB luciferase reporter in Ad5-wt-ERα infected HAECT-1 cells; assay type: cell-based, human; settings: Homo sapiens, HAECT1, IL-1β; for IC50: read-out: ER/NFκB IC50; for Emax: read-out: ER/NFκB Efficacy (%)*
creatine kinase = test: Creatine kinase (CK) test procedure in Ad5-wt-ERα infected HAECT-1 cells; assay type: cell-based, human; settings: Homo sapiens
[1] = HAECT1, Ad5-wt-ERα infected HAECT-1 cells, read-out: Creatin Kinase Efficacy (%)
[2] = HAECT1, Ad5-wt-ERα infected HAECT-1 cells, read-out: Creatin Kinase EC50

IC50 (IL-6) [nM] | IC50 (ER/NF-κB) [nM] | EC50 (creatine kinase; HAECT1, read-out: Creatin Kinase EC50) [nM] | melting point [°C] | EC50 (creatine kinase; [2]) [nM] | Structure (SMILES) | Emax (IL-6) [%] | Emax (creatine kinase; [1]) [%] | Emax (ER/NF-κB) [%] | Emax at 10 µM (creatine kinase; HAECT1, @10 μM, Ad5-wt-ERα infected HAECT-1 cells, read-out: Creatin Kinase Efficacy (%)) [%]
~1 | ~1 | 5.8 |  |  | C[C@]12CC[C@@H]3c4ccc(O)cc4CC[C@H]3[C@@H]1CC[C@@H]2O [Example E2, 17β-estradiol, reference compound] |  |  |  | 
7 |  |  | 213.5 to 220 |  | C[C@H]1c2ccccc2-c2ccc(Cl)cc2N1S(=O)(=O)c1ccc(O)cc1 [Example 123, 4-{[(6S)-3-Chloro-6-methylphenanthridin-5(6H)-yl]sulfonyl}phenol] | 154 | 2 |  | 
130 |  |  | 194 to 196 | 326 | CC1c2ccc(F)cc2-c2cc(F)ccc2N1S(=O)(=O)c1ccc(O)cc1 (stereo not drawn) [Example 116, 4-[(2,9-Difluoro-6-methylphenanthridin-5(6H)-yl)sulfonyl]phenol] | 99 | 23 |  | 
18 |  |  | 220.9 to 223 |  | C[C@@H]1c2ccccc2-c2ccc(Cl)cc2N1S(=O)(=O)c1cccc(O)c1 [Example 119, 3-{[(6R)-3-Chloro-6-methylphenanthridin-5(6H)-yl]sulfonyl}phenol] | 35 | 21 |  | 
81 |  |  | 167.2 to 173 | 102 | CC1c2ccc(F)cc2-c2ccc(F)cc2N1S(=O)(=O)c1cccc(O)c1 (stereo not drawn) [Example 115, 3-[(3,9-Difluoro-6-methylphenanthridin-5(6H)-yl)sulfonyl]phenol] | 102 | 16 |  | 
23.4 | 33 |  | 193 | 91 | C[C@H]1c2cc(F)ccc2-c2ccccc2N1S(=O)(=O)c1ccc(O)cc1 [Example 33, 4-{[(S)-8-Fluoro-6-methylphenanthridin-5(6H)-yl]sulfonyl}phenol] | 108 | 21 | 99 | 
 | 2840 |  | 193 |  | C[C@@H]1c2cc(F)ccc2-c2ccccc2N1S(=O)(=O)c1ccc(O)cc1 [Example 34, 4-{[(R)-8-Fluoro-6-methylphenanthridin-5(6H)-yl]sulfonyl}phenol] | 35 |  | 89 | < 35
40 |  |  | 166.5 to 167 | 661 | C[C@H]1c2cc(F)ccc2-c2ccccc2N1S(=O)(=O)c1ccc(OS(N)(=O)=O)cc1 [Example 126, 4-{[(6S)-8-Fluoro-6-methylphenanthridin-5(6H)-yl]sulfonyl}phenyl sulfamate] | 99 | 61 |  | 
43 |  |  | 164 to 167 | 1420 | CC1c2ccccc2-c2ccc(F)cc2N1S(=O)(=O)c1cccc(O)c1 (stereo not drawn) [Example 106, 3-[(3-Fluoro-6-methylphenanthridin-5(6H)-yl)sulfonyl]phenol] | 104 | 22 |  | 
224 |  |  | 178.2 to 182 | 624 | C[C@@H]1c2ccccc2-c2ccc(Cl)cc2N1S(=O)(=O)c1ccc(O)cc1O [Example 124, 4-{[(6R)-3-Chloro-6-methylphenanthridin-5(6H)-yl]sulfonyl}benzene-1,3-diol] | 19 | 4 |  | 
173 |  |  | 195 to 196 | 284 | CC1c2ccccc2-c2cc(F)ccc2N1S(=O)(=O)c1cccc(O)c1 (stereo not drawn) [Example 113, 3-[(2-Fluoro-6-methylphenanthridin-5(6H)-yl)sulfonyl]phenol] | 100 | 40 |  | 
92 |  |  | 162 to 165 | 32 | CC1c2ccccc2-c2ccc(F)cc2N1S(=O)(=O)c1ccc(O)cc1 (stereo not drawn) [Example 105, 4-[(3-Fluoro-6-methylphenanthridin-5(6H)-yl)sulfonyl]phenol] | > 100 | 17 |  | 
104 |  |  | 165.5 to 171 | 40 | CC1c2ccc(F)cc2-c2cc(F)ccc2N1S(=O)(=O)c1cccc(O)c1 (stereo not drawn) [Example 117, 3-[(2,9-Difluoro-6-methylphenanthridin-5(6H)-yl)sulfonyl]phenol] | 101 | 8 |  | 
96 |  |  | 215 |  | CC1c2ccccc2-c2ccc(Cl)cc2N1S(=O)(=O)c1cccc(O)c1 (stereo not drawn) [Example 118, 3-[(3-Chloro-6-methylphenanthridin-5(6H)-yl)sulfonyl]phenol] | 103 | -16 |  | 
175 |  |  | 216 to 218 | 337 | CC1c2ccccc2-c2cc(F)ccc2N1S(=O)(=O)c1ccc(O)cc1 (stereo not drawn) [Example 112, 4-[(2-Fluoro-6-methylphenanthridin-5(6H)-yl)sulfonyl]phenol] | 100 | 1 |  | 
22 |  |  | 151 to 153 | 102 | C[C@H]1c2ccccc2-c2ccc(F)cc2N1S(=O)(=O)c1ccc(O)cc1O [Example 111, 4-{[(6S)-3-Fluoro-6-methylphenanthridin-5(6H)-yl]sulfonyl}benzene-1,3-diol] | 114 | 33 |  | 
2340 |  |  | 150 to 152 | 954 | C[C@@H]1c2ccccc2-c2ccc(F)cc2N1S(=O)(=O)c1ccc(O)cc1O [Example 110, 4-{[(6R)-3-Fluoro-6-methylphenanthridin-5(6H)-yl]sulfonyl}benzene-1,3-diol] | 38 | -7 |  | 
30 |  |  | 204 | 107 | CC1c2ccccc2-c2ccc(Cl)cc2N1S(=O)(=O)c1ccc(O)cc1 (stereo not drawn) [Example 121, 4-[(3-Chloro-6-methylphenanthridin-5(6H)-yl)sulfonyl]phenol] | 113 | 29 |  | 
